The source of these data is patent US20210283139A1, “BIFUNCTIONAL MOLECULES FOR TARGETING UCHL5” (AMPHISTA THERAPEUTICS LTD, priority 2018, published 2021).

For this assay, the target named is T1, Brd4 (Homo sapiens, UniProt O60885).
T1 construct: endogenous in cells; host or cells: HEK293, HAP1, MV4-11
The assay can be described thus: Mechanistic evaluation of Brd4 degradation in HEK293 cells (degrasyn or I-BET726 pre-treatment). It is filed as cell-based. As to conditions: 6 h. On the procedure:
Immunoblotting. proteins were separated by SDS-PAGE on NuPage 4-12% Bis-Tris gels, followed by transfer to Amersham Protran 0.45 NC nitrocellulose membrane (GE Healthcare) using wet transfer. Membranes were blocked using 5% w/v milk in Tris-buffered saline (TBS) with 0.1% Tween-20. Blots were probed (overnight at 4° C.) using anti-Brd2 (Abcam ab139690, 1:2,000 dilution), anti-Brd3 (Abcam ab50818, 1:500 dilution), and anti-Brd4 (Abcam ab128874, 1:1,000 dilution) primary antibodies, as appropriate. The next day, blots were washed with TBST and incubated (1 hr at RT) with anti-Tubulin hFAB-rhodamine (BioRad, 12004166) primary antibody, and either anti-rabbit IRDye 800CW (Licor 1:10,000 dilution) or anti-mouse IRDye 800CW (Licor 1:10,000 dilution) secondary antibody. Blots were developed using a Bio-Rad ChemiDoc MP Imaging System, and band quantification was performed using Image Studio software (LiCor). Band intensities were normalized to the tubulin loading control and reported as % of the average 0.1% DMSO vehicle intensity. Degradation data was plotted and analysed using Prism (Graphpad, version 8).
HEK293 (1×10^6) cells were seeded in standard 6-well plates (2 mL medium) overnight before pre-treatment with inhibitors (5 μM degrasyn or 1 μM I-BET726). After a 0.5 h pre-incubation time, cells were subsequently treated with vehicle, 0.1 μM MZ1 or 0.1 μM 05IB9, yielding a final overall DMSO concentration of 0.2% v/v. After 6 h incubation, cells were washed with DPBS (Gibco) and lysed using 85 μL RIPA buffer (Sigma-Aldrich) supplemented with cOmplete Mini EDTA-free protease inhibitor cocktail (Roche) and benzonase. Lysates were clarified by centrifugation (20,000 g, 10 min, 4° C.) and the total protein content of the supernatant was quantified using a Bradford colorimetric assay. Samples were prepared using equal amounts of total protein and LDS sample buffer (Invitrogen).

The structures appear in SMILES notation.

In the case of `CCCC(NC(=O)/C(C#N)=C/c1nccs1)c1ccc(OCCOCCOCCOCCOCCOCCOCCNC(=O)c2ccc(-c3ccc4c(c3)[C@H](Nc3ccc(Cl)cc3)C[C@H](C)N4C(C)=O)cc2)cc1` (some centres unmarked) [Example 05IB9], the “Brd4 degradation in the presence of degrasyn or I-BET726” value (HEK293, 0.1 μM compound, 0.5 h pre-treatment with 5 μM degrasyn or 1 μM I-BET726) is “completely blocked in the presence of either degrasyn or I-BET726”. The Brd4 protein levels entry (HEK293, 0.1 μM) is “depletion”.
